ChEMBL document CHEMBL1126433 (Bioorg Med Chem Lett, 1992)
The source made the active and inactive calls. The calls are words filed in the database; no cut-off is given here.

Columns and labels:
[1] = target: T1, Polyunsaturated fatty acid 5-lipoxygenase (Rattus norvegicus, UniProt P12527); test: Compound was evaluated for its inhibitory activity against 5-LO (5-lipoxygenase) in intact RBL-1 cell line assay; type: cell-based
T1 sequence (P12527 whole entry): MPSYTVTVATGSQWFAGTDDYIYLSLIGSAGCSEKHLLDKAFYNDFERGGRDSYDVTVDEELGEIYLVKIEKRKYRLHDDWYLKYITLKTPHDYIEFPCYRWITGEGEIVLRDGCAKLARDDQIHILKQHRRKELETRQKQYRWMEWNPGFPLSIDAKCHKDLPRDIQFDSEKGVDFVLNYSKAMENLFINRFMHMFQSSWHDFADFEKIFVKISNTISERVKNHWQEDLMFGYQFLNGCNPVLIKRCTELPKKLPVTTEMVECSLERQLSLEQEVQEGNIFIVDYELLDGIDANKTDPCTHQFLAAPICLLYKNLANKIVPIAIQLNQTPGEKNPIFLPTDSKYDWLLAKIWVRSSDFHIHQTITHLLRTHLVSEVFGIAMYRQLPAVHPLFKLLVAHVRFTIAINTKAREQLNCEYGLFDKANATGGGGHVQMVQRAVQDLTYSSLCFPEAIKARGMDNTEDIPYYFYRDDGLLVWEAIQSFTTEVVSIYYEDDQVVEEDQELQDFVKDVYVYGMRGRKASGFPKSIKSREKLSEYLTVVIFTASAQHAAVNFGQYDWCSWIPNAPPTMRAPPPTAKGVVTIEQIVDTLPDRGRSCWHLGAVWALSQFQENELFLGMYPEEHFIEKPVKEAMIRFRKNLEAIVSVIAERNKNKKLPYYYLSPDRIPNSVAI

[2] = target: T2, Cyclooxygenase (Rattus norvegicus) (UniProt P35355+Q63921); test: Compound was evaluated for its inhibitory activity against CO(cyclooxygenase) at 10 uM concentration in intact RBL-1 cell line assay; type: cell-based
[3] = target: T3, Polyunsaturated fatty acid 5-lipoxygenase (Rattus norvegicus) (UniProt P12527); test: Compound was evaluated for its inhibitory activity against 5-LO (5-lipoxygenase) at 10 uM concentration in intact RBL-1 cell line assay; Less than 5% inhibition at 10 uM reported as not active; type: cell-based
T3 sequence (whole entry): T1 sequence (P12527 whole entry)

Cyclooxygenase [4] = target: T4, Cyclooxygenase (Rattus norvegicus, UniProt P35355+Q63921); test: Compound was evaluated for its inhibitory activity against CO(cyclooxygenase) in intact RBL-1 cell line assay; type: cell-based
T4 sequence (P35355 whole entry): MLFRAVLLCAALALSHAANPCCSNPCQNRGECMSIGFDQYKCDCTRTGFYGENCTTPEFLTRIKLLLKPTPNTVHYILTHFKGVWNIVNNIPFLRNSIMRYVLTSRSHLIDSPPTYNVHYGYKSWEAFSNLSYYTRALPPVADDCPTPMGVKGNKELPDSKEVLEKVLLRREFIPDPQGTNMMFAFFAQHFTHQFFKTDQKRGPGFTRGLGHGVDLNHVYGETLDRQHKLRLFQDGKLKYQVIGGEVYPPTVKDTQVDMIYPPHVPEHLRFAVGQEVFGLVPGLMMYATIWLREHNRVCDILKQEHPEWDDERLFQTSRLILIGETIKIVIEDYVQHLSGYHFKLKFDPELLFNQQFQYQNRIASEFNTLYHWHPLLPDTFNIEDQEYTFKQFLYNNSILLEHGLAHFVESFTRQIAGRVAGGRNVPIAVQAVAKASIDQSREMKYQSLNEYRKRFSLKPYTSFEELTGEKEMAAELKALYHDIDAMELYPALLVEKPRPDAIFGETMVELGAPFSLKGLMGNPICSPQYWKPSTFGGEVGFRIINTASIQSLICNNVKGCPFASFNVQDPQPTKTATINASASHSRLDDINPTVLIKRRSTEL
T4 sequence (Q63921 whole entry): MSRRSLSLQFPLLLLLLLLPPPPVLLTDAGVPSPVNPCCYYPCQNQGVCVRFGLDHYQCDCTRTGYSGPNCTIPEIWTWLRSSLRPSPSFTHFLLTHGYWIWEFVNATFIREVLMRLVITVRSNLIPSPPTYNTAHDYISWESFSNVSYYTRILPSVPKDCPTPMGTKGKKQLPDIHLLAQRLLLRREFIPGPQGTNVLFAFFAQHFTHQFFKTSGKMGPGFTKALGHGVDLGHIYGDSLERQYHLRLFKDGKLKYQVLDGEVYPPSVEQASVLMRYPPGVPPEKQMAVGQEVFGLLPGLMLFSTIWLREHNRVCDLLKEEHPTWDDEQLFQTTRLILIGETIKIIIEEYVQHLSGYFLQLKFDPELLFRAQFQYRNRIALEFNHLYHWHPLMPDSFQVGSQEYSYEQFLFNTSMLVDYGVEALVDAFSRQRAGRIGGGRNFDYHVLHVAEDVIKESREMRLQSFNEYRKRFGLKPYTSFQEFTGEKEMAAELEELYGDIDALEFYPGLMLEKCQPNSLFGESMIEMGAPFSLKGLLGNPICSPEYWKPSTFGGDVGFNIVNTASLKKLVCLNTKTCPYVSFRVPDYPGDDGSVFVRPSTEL

[5] = target: T3, Polyunsaturated fatty acid 5-lipoxygenase (Rattus norvegicus); test: Compound was evaluated for its inhibitory activity against 5-LO (5-lipoxygenase) at 10 uM concentration in intact RBL-1 cell line assay; type: cell-based
[6] = target: T2, Cyclooxygenase (Rattus norvegicus); test: Compound was evaluated for its inhibitory activity against CO(cyclooxygenase) at 10 uM concentration in intact RBL-1 cell line assay; Less than 5% inhibition at 10 uM reported as not active; type: cell-based
Cyclooxygenase [7] = target: T4, Cyclooxygenase; test: Compound was evaluated for its inhibitory activity against CO(cyclooxygenase); type: protein assay

In the case of `COc1ccc2c(c1)c(CC(=O)O)c(C)n2C(=O)c1ccc(Cl)cc1` [INDOMETHACIN], the IC50 [1] is reported as greater than 100000 nM.

With `Cc1ccc(Cl)c(Nc2ccccc2/C=C2\SC(=S)N(C)C2=O)c1Cl` the inhibition [2] was 32% and the inhibition [3] was “inactive”.

`COc1ccc2c(c1)c(/C=C1/SC(=S)NC1=O)c(C)n2C(=O)c1ccc(Cl)cc1` showed an IC50 [1] of 1400 nM and an IC50 (Cyclooxygenase [4]) of 2000 nM.

Work on `Cc1ccc(Cl)c(Nc2ccccc2/C=C2\SC(=S)N(CC(=O)O)C2=O)c1Cl` yielded an inhibition [2] of 33%.

In the case of `Cc1ccc(Cl)c(Nc2ccccc2/C=C2\SC(=O)NC2=O)c1Cl`, the inhibition [5] is reported as 30% and the inhibition [6] is reported as “inactive”.

Molecule `Cc1ccc(Cl)c(Nc2ccccc2/C=C2\SC(=S)NC2=O)c1Cl` has an IC50 (Cyclooxygenase [7]) of 6000 nM.

`Cc1ccc(Cl)c(Nc2ccccc2/C=C2\SC(NC#N)=NC2=O)c1Cl` was tested, and the IC50 [1] was 1500 nM and the IC50 (Cyclooxygenase [4]) was 10200 nM.

Work on `Cc1ccc(Cl)c(Nc2ccccc2/C=C2\SC(N)=NC2=O)c1Cl` yielded an inhibition [2] of 20% and an inhibition [5] of 35%.
